According to patent US20260324639A1, “MICROBIOCIDAL PYRAZOLE DERIVATIVES” (SYNGENTA CROP PROTECTION AG, priority 2022, published 2026):

Tests used:
Glomerella lagenarium = Glomerella lagenarium (Colletotrichum lagenarium)/liquid culture (anthracnose); format: cell-based; settings: Colletotrichum orbiculare, liquid culture, PDB, 24° C., growth inhibition photometric 3-4 days after application, read-out: control of Glomerella lagenarium compared to untreated control
Method: (§1) Conidia of the fungus from cryogenic storage are directly mixed into nutrient broth (PDB potato dextrose broth). After placing a (DMSO) solution of test compound into a microtiter plate (96-well format), the nutrient broth containing the fungal spores is added. The test plates are incubated at 24° C. and the inhibition of growth is measured photometrically 3-4 days after application.

Pyrenophora teres = assay: Pyrenophora teres/barley/leaf disc preventative (net blotch); format: in vivo; settings: 200 ppm, barley leaf segments cv. Hasso, inoculated 2 days after application, assessed 5-7 days after application
Method: Barley leaf segments cv. Hasso are placed on agar in a multiwell plate (24-well format) and sprayed with the formulated test compound diluted in water. The leaf segments are inoculated with a spore suspension of the fungus 2 days after application. The inoculated leaf segments are incubated at 20° C. and 65% rh under a light regime of 12 h light/12 h darkness in a climate cabinet and the activity of a compound is assessed as disease control compared to untreated when an appropriate level of disease damage appears in untreated check leaf segments (5-7 days after application).

Phaeosphaeria nodorum = Phaeosphaeria nodorum (Septoria nodorum)/wheat/leaf disc preventative (glume blotch); format: in vivo; settings: 200 ppm, wheat leaf segments cv. Kanzler, inoculated 2 days after application, assessed 5-7 days after application
Method: Wheat leaf segments cv. Kanzler are placed on agar in a multiwell plate (24-well format) and sprayed with the formulated test compound diluted in water. The leaf disks are inoculated with a spore suspension of the fungus 2 days after application. The inoculated test leaf disks are incubated at 20° C. and 75% rh under a light regime of 12 h light/12 h darkness in a climate cabinet and the activity of a compound is assessed as percent disease control compared to untreated when an appropriate level of disease damage appears in untreated check leaf disks (5-7 days after application).

[1] = test system: Mycosphaerella graminicola; assay: Mycosphaerella graminicola (Septoria tritici)/liquid culture (Septoria blotch); format: cell-based; settings: Zymoseptoria tritici, liquid culture, PDB, 24° C., growth inhibition photometric 4-5 days after application, read-out: control of Mycosphaerella graminicola compared to untreated control
Method: as §1, with “determined” for “measured”, “4-5” for “3-4”

Fusarium culmorum = assay: microbe, parasite or virus in culture; format: cell-based; settings: read-out: control of Fusarium culmorum compared to untreated control
Method: as §1, with “determined” for “measured”

Alternaria solani = assay: Alternaria solani/tomato/leaf disc (early blight); format: in vivo; settings: 200 ppm; tomato leaf disks cv. Baby; inoculated 2 days after application; assessed 5-7 days after application
Method: Tomato leaf disks cv. Baby are placed on agar in multiwell plates (24-well format) and sprayed with the formulated test compound diluted in water. The leaf disks are inoculated with a spore suspension of the fungus 2 days after application. The inoculated leaf disks are incubated at 23° C./21° C. (day/night) and 80% rh under a light regime of 12/12 h (light/dark) in a climate cabinet and the activity of a compound is assessed as percent disease control compared to untreated when an appropriate level of disease damage appears on untreated check disk leaf disks (5-7 days after application).

Monographella nivalis = Monographella nivalis (Microdochium nivale)/liquid culture (foot rot cereals); format: cell-based; settings: liquid culture, PDB, 24° C., growth inhibition photometric 4-5 days after application, read-out: control of Monographella nivalis compared to untreated control
Method: as §1, with “determined” for “measured”, “4-5” for “3-4”

Mycosphaerella arachidis = Mycosphaerella arachidis (Cercospora arachidicola)/liquid culture (early leaf spot); format: cell-based; settings: liquid culture, PDB, 24° C., growth inhibition photometric 4-5 days after application, read-out: control of Mycosphaerella arachidis compared to untreated control
Method: as §1, with “determined” for “measured”, “4-5” for “3-4”

[2] = test system: Blumeria graminis f. sp. tritici; assay: Blumeria graminis f. sp. tritici/wheat/leaf disc preventative (powdery mildew on wheat); format: in vivo; settings: 200 ppm, wheat leaf segments cv. Kanzler, inoculated 1 day after application, assessed 6-8 days after application
Method: Wheat leaf segments cv. Kanzler are placed on agar in a multiwell plate (24-well format) and sprayed with the formulated test compound diluted in water. The leaf disks are inoculated by shaking powdery mildew infected plants above the test plates 1 day after application. The inoculated leaf disks are incubated at 20° C. and 60% rh under a light regime of 24 h darkness followed by 12 h light/12 h darkness in a climate chamber and the activity of a compound is assessed as percent disease control compared to untreated when an appropriate level of disease damage appears on untreated check leaf segments (6-8 days after application).

Botryotinia fuckeliana = Botryotinia fuckeliana (Botrytis cinerea)/liquid culture (gray mould); format: cell-based; settings: liquid culture, Vogels broth, 24° C., growth inhibition photometric 3-4 days after application, read-out: control of Botryotinia fuckeliana compared to untreated control
Method: as §1, with “(Vogels” for “(PDB potato dextrose”, “determined” for “measured”

[3] = test system: Puccinia recondita f. sp. tritici; assay: Puccinia recondita f. sp. tritici/wheat/leaf disc preventative (brown rust); format: in vivo; settings: 200 ppm, inoculated 1 day after application, wheat leaf segments cv. Kanzler, assessed 7-9 days after application
Method: Wheat leaf segments cv. Kanzler are placed on agar in multiwell plates (24-well format) and sprayed with the formulated test compound diluted in water. The leaf disks are inoculated with a spore suspension of the fungus 1 day after application. The inoculated leaf segments are incubated at 19° C. and 75% rh under a light regime of 12 h light/12 h darkness in a climate cabinet and the activity of a compound is assessed as percent disease control compared to untreated when an appropriate level of disease damage appears in untreated check leaf segments (7-9 days after application).

Sclerotinia sclerotiorum = assay: Sclerotinia sclerotiorum/liquid culture (cottony rot); format: cell-based; settings: liquid culture (mycelia fragments), PDB, 24° C., growth inhibition photometric 3-4 days after application, read-out: control of Sclerotinia sclerotiorum compared to untreated control
Method: as §1, with “Mycelia fragments of a newly grown liquid culture” for “Conidia”, “fungus” for “fungus from cryogenic storage”, “format)” for “format),”, “material” for “spores”, “determined” for “measured”

Row | SMILES | inhibition of growth at 20 ppm (Glomerella lagenarium) [%] | control of Pyrenophora teres compared to untreated control (Pyrenophora teres) | control of Phaeosphaeria nodorum compared to untreated control (Phaeosphaeria nodorum) | inhibition of growth at 20 ppm [1] [%] | inhibition of growth at 20 ppm (Fusarium culmorum) [%] | control of Alternaria solani compared to untreated control (Alternaria solani) | inhibition of growth at 20 ppm (Monographella nivalis) [%] | inhibition of growth at 20 ppm (Mycosphaerella arachidis) [%] | control of Blumeria graminis f. sp. tritici compared to untreated control [2] | inhibition of growth at 20 ppm (Botryotinia fuckeliana) [%] | control of Puccinia recondita f. sp. tritici compared to untreated control [3] | inhibition of growth at 20 ppm (Sclerotinia sclerotiorum) [%]
1 | C[C@H]1c2ccccc2[C@@H](c2cnn(C)c2Cl)CN1C(=O)c1cn(-c2ncc(F)cc2F)nn1 (racemic) [Compound P-53, [1-(3,5-difluoro-2-pyridyl)triazol-4-yl]-[rac-(1S,4S)-4-(5-chloro-1-methyl-pyrazol-4-yl)-1-methyl-3,4-dihydro-1H-isoquinolin-2-yl]methanone] | ≥ 80 | at least 80% | at least 80% | ≥ 80 | ≥ 80 | at least 80% | ≥ 80 | ≥ 80 | at least 80% | ≥ 80 | – | –
2 | COc1ccc2c(c1)[C@@H](c1cnn(C)c1)CN(C(=O)c1nnn(-c3ccccc3)n1)[C@H]2C (single isomer, unassigned) [Compound P-37] | – | at least 80% | at least 80% | ≥ 80 | – | – | ≥ 80 | ≥ 80 | at least 80% | ≥ 80 | at least 80% | –
3 | Cc1c([C@H]2CN(C(=O)c3cn(-c4ncc(F)cc4F)nn3)[C@@H](C)c3ccccc32)cnn1C [Compound P-43, [1-(3,5-difluoro-2-pyridyl)triazol-4-yl]-[(1S,4S)-4-(1,5-dimethylpyrazol-4-yl)-1-methyl-3,4-dihydro-1H-isoquinolin-2-yl]methanone] | ≥ 80 | at least 80% | at least 80% | ≥ 80 | ≥ 80 | at least 80% | ≥ 80 | ≥ 80 | at least 80% | ≥ 80 | – | –
4 | C[C@H]1c2ccccc2[C@@H](c2cnn(C)c2Cl)CN1C(=O)c1cn(-c2ccc(F)cc2F)nn1 [Compound P-48, [(1S,4S)-4-(5-chloro-1-methyl-pyrazol-4-yl)-1-methyl-3,4-dihydro-1H-isoquinolin-2-yl]-[1-(2,4-difluorophenyl)triazol-4-yl]methanone] | ≥ 80 | at least 80% | at least 80% | ≥ 80 | ≥ 80 | at least 80% | ≥ 80 | ≥ 80 | at least 80% | ≥ 80 | – | ≥ 80
5 | C[C@H]1c2ccccc2[C@@H](c2cnn(C)c2Cl)CN1C(=O)c1nnn(-c2ccc(F)cc2F)n1 [Compound P-49, [(1S,4S)-4-(5-chloro-1-methyl-pyrazol-4-yl)-1-methyl-3,4-dihydro-1H-isoquinolin-2-yl]-[2-(2,4-difluorophenyl)tetrazol-5-yl]methanone] | ≥ 80 | at least 80% | at least 80% | ≥ 80 | – | at least 80% | ≥ 80 | ≥ 80 | at least 80% | ≥ 80 | at least 80% | –
6 | C[C@H]1c2ccccc2[C@@H](c2cnn(C)c2)CN1C(=O)c1cn(-c2ncc(F)cc2F)nn1 [Compound P-51, [1-(3,5-difluoro-2-pyridyl)triazol-4-yl]-[(1S,4S)-1-methyl-4-(1-methylpyrazol-4-yl)-3,4-dihydro-1H-isoquinolin-2-yl]methanone] | ≥ 80 | at least 80% | at least 80% | ≥ 80 | – | at least 80% | ≥ 80 | ≥ 80 | at least 80% | ≥ 80 | – | –
7 | Cc1c(C2CN(C(=O)c3cn(-c4ccc(F)cc4F)nn3)Cc3ccccc32)cnn1C (stereo not shown) [Compound P-56, [1-(2,4-difluorophenyl)triazol-4-yl]-[4-(1,5-dimethylpyrazol-4-yl)-3,4-dihydro-1H-isoquinolin-2-yl]methanone] | ≥ 80 | at least 80% | at least 80% | ≥ 80 | – | at least 80% | ≥ 80 | ≥ 80 | at least 80% | ≥ 80 | – | –
